According to patent US12263248B2, “Compounds and compositions for intracellular delivery of therapeutic agents” (ModernaTX, Inc., priority 2018, dated 2025):
Marks after values point to notes of the source that are not given here.

What was measured:
hEPO mRNA [1] = assay: hEPO expression after subcutaneous administration to mice; format: in vivo, female CD-1 mice
Procedure, shortened: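 Lipid nanoparticle formulations carrying hEPO or luciferase mRNA were given subcutaneously at 0.5 mpk to female CD-1 mice. Whole-body luminescence imaging was done at 3, 6 and 24 h. Liver, spleen and injection-site expression were assessed ex vivo at 24 h.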

sC5b-9 = assay: Complement activation in vitro (sC5b-9 levels); format: cell-based; details: human cells contacted in vitro
Procedure, shortened: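 Human cells exposed in vitro to nanoparticle compositions, with the soluble terminal complement complex sC5b-9 measured as a marker of complement activation.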

hEPO mRNA [2] = assay: hEPO expression after intravenous administration to rats; format: in vivo, rat; details: for Lipid/MC3 hEPO expression: 6 hours after administration; for hEPO expression / hEPO expression 0.25 h / hEPO expression 0.5 h / hEPO expression 1 h / hEPO expression 2 h / hEPO expression 4 h / hEPO expression 8 h / hEPO expression 24 h / hEPO expression 48 h: rat; for Lipid/MC3 hEPO conc. ratio 0.2 mpk / Lipid/MC3 hEPO conc. ratio 2 mpk: rats
Procedure, shortened: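 Rats dosed intravenously once with nanoparticle composition, 0.2 or 2.0 mpk, formulated by the standard MC3 method. Tail-vein blood sampled at 6 h or at time points from 0.25 to 48 h. hEPO measured by ELISA.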

[3] = Residual lipid levels in rat liver and spleen (UPLC-MS); format: in vivo; details: for % dose remaining Rat liver tissue, 48 h: Sprague Dawley rat liver 48 h after 2 mg/kg bolus dose mRNA; for % Lipid Remaining in liver, 48 h: assuming 300 g rat and 15 g liver; for % remaining dose in liver, 48 h: 2.0 mpk
Procedure, shortened: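 Rats received a single intravenous dose of lipid nanoparticle composition, and liver tissue was later collected to quantify residual lipid. Weighed tissue was homogenized in Milli-Q water (900 μL per 100 mg tissue) using an Omni probe homogenizer. 50 μL aliquots were mixed with 400 μL spiking solution, vortexed, centrifuged, and analyzed by UPLC on a C8 column with positive-mode ESI detection on a Sciex API5500 mass spectrometer.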

[4] = Clinical chemistry and hematology in rat, 2 mpk i.v., 48 h; format: in vivo; details: intravenous, 48 h post dose
Description: Sample formulations of nanoparticle compositions including different lipids were administered intravenously to rat at a dose of 2 mpk. The expression of various clinical markers was evaluated at 48 h post dose and compared to that induced by administration of MC3 formulations or phosphate buffered saline (PBS).

IP-10 = assay: Cytokine induction in rats after intravenous administration; format: in vivo, rat; details: for IP-10: rats, 2.0 mpk, 6 hours, hEPO nanoparticle compositions; for IP-10 induction: rat, 48 hours after administration
Description: The expression of hEPO and cytokine induction in rats intravenously administered a nanoparticle composition at a dose of 2.0 mpk was measured at 6 h.
Table 19A summarizes the hEPO expression, IP-10 induction, liver and spleen levels, and alanine aminotransferase (ALT) and aspartate aminotransferase (AST) measured upon intravenous administration of formulations including Compounds 48, 49, and 50 to rat at 0.2 and 2 mpk and hEPO mRNA. hEPO concentrations were measured 6 hours after administration, while cytokine induction and liver and spleen levels were measured 48 hours after administration. hEPO and IP-10 concentrations are presented in pg/ml, while liver levels are provided in ng/g. ALT and AST levels are presented in international units.

[5] = rat, intravenous, 0.2 mpk, 48 hours, Table 19A
[6] = rat, intravenous, 2 mpk, 48 hours, Table 19A

Structure (SMILES) | Fold increase in sC5b-9 levels versus saline (sC5b-9) | Lipid/MC3 hEPO expression (hEPO mRNA [2]; 0.2 mpk dose to rat) | Lipid/MC3 hEPO expression (hEPO mRNA [2]; 2 mpk dose to rat) | hEPO expression (hEPO mRNA [2]; 6 h, 2 mpk, i.v.) | hEPO expression 0.25 h (hEPO mRNA [2]; intravenous, 0.2 mpk) | hEPO expression 0.5 h (hEPO mRNA [2]; intravenous, 0.2 mpk) | hEPO expression 1 h (hEPO mRNA [2]; intravenous, 0.2 mpk) | hEPO expression 2 h (hEPO mRNA [2]; intravenous, 0.2 mpk) | hEPO expression 4 h (hEPO mRNA [2]; intravenous, 0.2 mpk) | hEPO expression 8 h (hEPO mRNA [2]; intravenous, 0.2 mpk) | Lipid/MC3 hEPO conc. ratio 0.2 mpk (hEPO mRNA [2]; intravenous, 0.2 mpk, 6 hours) | Lipid/MC3 hEPO conc. ratio 2 mpk (hEPO mRNA [2]; intravenous, 2 mpk, 6 hours) | % Lipid Remaining in liver, 48 h ([3]; rats, 2 mpk) | % remaining dose in liver, 48 h ([3]; rats, intravenous) | Concentration Alanine aminotransferase [4] | Concentration Aspartate aminotransferase [4] | Concentration Lymphocytes [4] | Concentration Monocytes [4] | Concentration Neutrophils [4] | IP-10 (IP-10) | also measured
CCCCCCCCCCCOC(=O)CCCCCN(CCO)CCCCCCCC(=O)OC(CCCCCCCC)CCCCCCCC [Compound 25, Heptadecan-9-yl 8-((2-hydroxyethyl)(6-oxo-6-(undecyloxy)hexyl)amino)octanoate] | 1.02 | 2.41 | 2.13 | 3.05e+07 pg/mL | 0 pg/mL | 19553 pg/mL | 434299 pg/mL | 2042807 pg/mL | 3176560 pg/mL | 2631633 pg/mL | 2.41 | 2.13 | 1.32% | 1.3% | 52 | 124.5 | 15924 | 2122 | 1998 | 533.5 pg/mL | Novel lipid/MC3 expression ratio, 6 hr. time point, s.c. hEPO 0.5 mpk (hEPO mRNA [1]; relative to MC3): 5.43; hEPO expression 24 h (hEPO mRNA [2]; intravenous, 0.2 mpk): 869374 pg/mL; hEPO expression 48 h (hEPO mRNA [2]; intravenous, 0.2 mpk): 103089 pg/mL; % dose remaining Rat liver tissue, 48 h [3]: 1.3^e %; % lipid remaining in liver after 48 hours ([3]; liver, 48 hours): 1.32%
CCCCCCCCCOC(=O)CCCCCCCN(CCO)CCCCCCCOC(=O)C(CCCCCCCC)CCCCCCCC [Compound 30, 7-((2-Hydroxyethyl)(8-(nonyloxy)-8-oxooctyl)amino)heptyl 2-octyldecanoate] | 0.94 |  |  | 1.63e+07 pg/mL |  |  |  |  |  |  | 1.87 | 1.14 | <0.01% | <1% | 56 | 95 | 10408.5 | 877 | 3195 | 214.5 pg/mL | hEPO expression Lipid/Compound 18 ratio, 6 hr. (hEPO mRNA [1]; 0.5 mpk, 6 hr.): 1.35; hEPO expression Lipid/MC3 ratio, 6 hr. (hEPO mRNA [1]; 0.5 mpk, 6 hr.): 6.53; hEPO expression Lipid/Compound 18 ratio, AUC (hEPO mRNA [1]; 0.5 mpk, AUC): 1.27; hEPO expression Lipid/MC3 ratio, AUC (hEPO mRNA [1]; 0.5 mpk, AUC): 6.38; sC5b-9 levels relative to saline (sC5b-9; in words): slightly decrease
CCCCC/C=C\C/C=C\CCCCCCCCC(CCCCCCCC/C=C\C/C=C\CCCCC)OC(=O)CCCN(C)C [MC3, DLin-MC3-DMA, reference compound] | 0.73 | 1 | 1 | 1.33e+07 pg/mL | 0 pg/mL | 42457 pg/mL | 93720 pg/mL | 524093 pg/mL | 601307 pg/mL | 1536833 pg/mL | 1 | 1 | 87% | 74% | 339 | 325 | 19976 | 1429 | 4962.5 | 688.3 pg/mL | AUC (hEPO) (hEPO mRNA [2]; Table 19B): 3.46e+07 pg·h/mL; [hEPO] (hEPO mRNA [2]; Table 19B, species, dose and time not given): 14800 pg/mL; hEPO expression (hEPO mRNA [2]; intravenous, 0.2 mpk, 6 hours): 7.68e+06 pg/mL; hEPO expression 24 h (hEPO mRNA [2]; intravenous, 0.2 mpk): 703619 pg/mL; hEPO expression 48 h (hEPO mRNA [2]; intravenous, 0.2 mpk): 64687 pg/mL; hEPO expression (hEPO mRNA [2]; intravenous, 2 mpk, 6 hours): 9.29e+06 pg/mL; % dose remaining Rat liver tissue, 48 h [3]: 61^e %; % dose remaining, liver, 24 h ([3]; Table 19B, liver, 24 h): 44%; % lipid remaining in liver after 48 hours ([3]; liver, 48 hours): 87%; Liver level [3, 5]: 11300 ng/g; Spleen level [3, 5]: 0.74 ng/g; Liver level [3, 6]: 140520 ng/g; Spleen level [3, 6]: 0.65 ng/g; Liver level ([3]; rats, 0.2 mpk, after 48 h): 25033 ng/g; Spleen level ([3]; rats, 0.2 mpk, after 48 h): 9440 ng/g; Liver level ([3]; rats, 2 mpk, after 48 h): 285333 ng/g; Spleen level ([3]; rats, 2 mpk, after 48 h): 129000 ng/g; lipid remained in the liver after 48 hours ([3]; rats, i.v., 0.2 mpk or 2.0 mpk): greater than 60%; IP-10 induction (IP-10; 0.2 mpk): 2 pg/mL; IP-10 induction (IP-10; 2 mpk): 596 pg/mL
